Results from EP3763715A1, “HARRINGTONINES SALTS, IN PARTICULAR RETINOATES, THEIR PROCESS OF PREPARATION AND THEIR USES IN THE TREATMENT OF LEUKEMIAS, CANCERS, AUTOIMMUNE, SKIN, ALZHEIMER'S AND INFLAMMATORY BOWEL DISEASES AND VIRAL INFECTIONS, COMBINED WITH MYELOPOIESIS STIMULATING AGENTS” (Robin, Jean-Pierre, priority 2019, dated 2021).

What was measured:
[1] = test system: multidrug-resistant cell lines; conditions: greater than that of HHT; cited from earlier work
Swiss nu/nu mice = experiment: Toxicity seen in mice bearing MDA-MB-468 xenografts (in vivo efficacy study); conditions: 1 mg/kg, subcutaneously, bi-daily, mice with MDA-MB-468 xenografts; all mice died after only a few days; preliminary experiment, data not shown
Protocol: The experiments were conducted according to the Guide for the Care and Use of Laboratory Animals published by the US National Institutes of Health (NIH Publication n°85-23, revised 1996) and approved by the Ethic Committee of Clermont-Ferrand, France. All mouse studies were conducted in the animal facility of the INSERM U1240. Six weeks old Swiss nu/nu mice were purchased from Charles River Laboratories France and housed in standard conditions (n=5 per cage on ventilated racks, at 21-24 °C, 60% humidity, 12 h light/12 h dark cycle) with ad libitum access to irradiated food and water. […]
For assessment of HHT toxicity, groups of 6 mice were injected with sterile saline or 1, 2, 4 or 8 mg/kg of the drug, subcutaneously, bi-daily, over 7 days. […] The number of live animals was determined at days 4, 8 and 10, after treatment initiation.
For evaluation of HHT efficacy in vivo, when xenografts reached a volume of 200±20 mm^3, mice were randomized into the control or the treated group. […] Tumor size was non-invasively assessed using a digital caliper on days 3, 6, 8 and 10 after treatment initiation. Tumor volume was calculated using the following formula: V=(length×width^2)/2.

SMILES: C/C=C/C=C/COC(=O)C[C@](O)(CCCC(C)(C)O)C(=O)O[C@@H]1C(OC)=C[C@]23CCCN2CCc2cc4c(cc2[C@H]13)OCO4 [OP5215]
- antileukemic activity [1]: 5 times

SMILES: COC(=O)C[C@](O)(CCCC(C)(C)O)C(=O)O[C@@H]1C(OC)=C[C@]23CCCN2CCc2cc4c(cc2[C@H]13)OCO4 [HHT, Homoharringtonine]
- toxicity for the animals (Swiss nu/nu mice): too toxic
